Read-outs that look alike come from different tables or passages of the source.
Key:
in vivo = experiment: in vivo; design: species or system mice; conditions: mouse, po, 100 mg/kg
Method: (§1) The compound B of the present invention has been tested for its pharmacokinetics and toxicity in mice. As shown in FIG. 3 peak levels of compound B occurred in the liver 1 h after p.o. administration of a single 100 mg/kg dose. […] Mice were dosed for 5 consecutive days with 0-300 mg/kg of compound B in 1% gum arabic (p.o.). Their weight was measured in 1 week intervals and at 4 weeks the animals were sacrificed and their organ weights measured.

[1] = test system: B16 melanoma pulmonary metastases; experiment: Early B16 pulmonary metastasis model (Day 4 B16 Model), A-NK cell adoptive immunotherapy; format: in vivo, C57BL/6 mice; conditions: for effect on reduction of B16 melanoma pulmonary metastases mediated by A-NK cell adoptive immunotherapy: A-NK cells administered on day 4; for significance of reduction in tumor burden (in words): compound B experiments (Table 2), three experiments; for effect on anti-metastatic therapeutic effect of adoptively transferred A-NK cells: conclusion from the two examples
Method: The B16 F1 melanoma model system, herein after referred to as B16 melanoma model system, is recognized as being highly resistant to treatment with many standard clinically used anti-cancer agents. Therefore, it was selected for testing because it is known to be reflective of the clinical situation for advanced melanoma.
A-NK cells were prepared from mouse spleens. All procedures were carried out in a laminar flow hood using sterile reagents and equipment. Briefly, a single cell suspension was prepared by gently mashing the spleens through a 40 mesh stainless steel screen into complete media (CM) which consisted of RPMI 1640 supplemented with 10% heat-inactivated fetal bovine serum, 100 U/ml penicillin, 100 μg/ml streptomycin sulfate, 50 μg/ml gentamicin sulfate, 2 mM L-glutamine, 5×10^-5 M 2-mercaptoethanol and 1% MEM non-essential amino acids. The erythrocytes in the resulting suspension were lysed and the suspension was centrifuged and washed twice with CM. Splencytes were cultured in T-150 flasks at 1.5×10^8 per cells per flask (A flasks) in 50 ml of CM containing 6000 IU rhIL-2/ml. […] On day 6 the A-NK cells were harvested.
Referring to FIG. 1 which illustrated a flow diagram of procedures for tumor metastasis system, A-NK generation, therapy and analysis for arly B16 tumors used in the present invention. All experimental groups initially contained at least 7 animals. A-NK cell generation was started at day -2 and the culture was expanded on days 0 and 1 as described above.
Separately on day 0, B16 tumor cells (2×10^5 i.v.) were injected into C57BL/6 mice. On days 0, 1, 2, 3 and 4, a benzothiazole compound of formula I (100 mg/kg, p.o.) was administered to the mice. On day 3 some animals received cyclophosphamide (300 mg/kg., i.p.) which is a standard chemotherapeutic drug.
Control mice received injections of vehicle diluent (1% gum arabic). […] On day 10, the mice were sacrificed, their lungs removed and the rumor colonies counted.

[2] = Subacute toxicity study in mice; format: in vivo; conditions: 0-300 mg/kg p.o. for 5 consecutive days, in 1% gum arabic
Method: as §1

[3] = test system: B16 melanoma pulmonary metastases; conditions: 216 h
Method: A-NK cells were prepared from mouse spleens. All procedures were carried out in a laminar flow hood using sterile reagents and equipment. Briefly, a single cell suspension was prepared by gently mashing the spleens through a 40 mesh stainless steel screen into complete media (CM) which consisted of RPMI 1640 supplemented with 10% heat-inactivated fetal bovine serum, 100 U/ml penicillin, 100 μg/ml streptomycin sulfate, 50 μg/ml gentamicin sulfate, 2 mM L-glutamine, 5×10^-5 M 2-mercaptoethanol and 1% MEM non-essential amino acids. The erythrocytes in the resulting suspension were lysed and the suspension was centrifuged and washed twice with CM. Splencytes were cultured in T-150 flasks at 1.5×10^8 per cells per flask (A flasks) in 50 ml of CM containing 6000 IU rhIL-2/ml. After 2 days the media and the non-adherent cells from the A flasks were transferred into new T-150 flasks (25 ml per flask--B flasks) and fresh CM+IL-2 (25 ml) was placed in the A flasks. The next day (day 3) the non-adherent cells and media from the B flasks were transferred to an equal number of T-150 C flasks and fresh CM+IL-2 was placed on the B flasks. […]
On day 8, 3-4×10^7 A-NK cells plus 120,000 IU of IL-2 were adaptively transferred into tumor-bearing mice. […] On day 9, the mice were sacrificed, their lungs removed and the tumor colonies counted.

| Structure (SMILES) | Tmax (in vivo) [h] | effect on reduction of B16 melanoma pulmonary metastases mediated by A-NK cell adoptive immunotherapy [1] | Number of Pulmonary Metastases (± standard deviation) ([1]; Table 2, experiment 1, Compound B + A-NK Cells (with IL-2), 100 mg/kg p.o. days 0-4, control 125 ± 66, *p < 0.05 vs. control) | Number of Pulmonary Metastases (± standard deviation) ([1]; Table 2, experiment 2, Compound B + A-NK Cells (with IL-2), 100 mg/kg p.o. days 0-4, control 187 ± 114, *p < 0.05 vs. control) | Number of Pulmonary Metastases (± standard deviation) ([1]; Table 2, experiment 3, Compound B + A-NK Cells (with IL-2), 100 mg/kg p.o. days 0-4, control 199 ± 45, **p < 0.001 vs. control) | significance of reduction in tumor burden (in words) [1] | effect on anti-metastatic therapeutic effect of adoptively transferred A-NK cells [1] | organ weight change ([2]; at 4 weeks) | body weight change ([2]; weekly weights to 4 weeks) | Number of Pulmonary Metastases (± standard deviation) ([1]; Table 1, experiment 1, given without compound A) | Number of Pulmonary Metastases (± standard deviation) ([1]; Table 1, experiment 2, given without compound A) | Number of Pulmonary Metastases (± standard deviation) ([1]; Table 1, experiment 3, given without compound A, cyclophosphamide *p < 0.05 vs. control) | Number of Pulmonary Metastases (± standard deviation) ([1]; Table 2, experiment 1, given without compound B) | Number of Pulmonary Metastases (± standard deviation) ([1]; Table 2, experiment 2, given without compound B) | Number of Pulmonary Metastases (± standard deviation) ([1]; Table 2, experiment 3, given without compound B) | reduction of tumor burden (average) [3] [%] | reduction of tumor burden (average) ([1]; A-NK cells on day 4, compound A in combination with A-NK cells) [%] | Number of Pulmonary Metastases (± standard deviation) ([1]; Table 1, experiment 1, Compound A + A-NK Cells (with IL-2), 100 mg/kg p.o. days 0-4, control 59 ± 41, *p < 0.05 vs. control) | Number of Pulmonary Metastases (± standard deviation) ([1]; Table 1, experiment 2, Compound A + A-NK Cells (with IL-2), 100 mg/kg p.o. days 0-4, control 32 ± 22, *p < 0.05 vs. control) | Number of Pulmonary Metastases (± standard deviation) ([1]; Table 1, experiment 3, Compound A + A-NK Cells (with IL-2), 100 mg/kg p.o. days 0-4, control 222 ± 74, **p < 0.02 vs. control) |
| --- | --- | --- | --- | --- | --- | --- | --- | --- | --- | --- | --- | --- | --- | --- | --- | --- | --- | --- | --- | --- |
| COc1cccc2sc(-c3ccc(C(F)(F)F)cc3)nc12 [Compound B, 4-Methoxy-2-(4-trifluoromethylphenyl) benzothiazole] | 1 | enhanced the reduction | 66 ± 39 | 88 ± 49 | 88 ± 60 | Significant reduction in tumor burden | augment the anti-metastatic therapeutic effect | no significant difference | no significant difference |  |  |  |  |  |  |  |  |  |  |  |
| O=P1(N(CCCl)CCCl)NCCCO1 (centres unmarked) [Cyclophosphamide, cyclophosphamide, reference compound] |  |  |  |  |  | neither A-NK cells alone or cyclophosphamide yielded a significant reduction in tumor burden |  |  |  | 33 ± 25 | 18 ± 12 | 81 ± 60 | 135 ± 55 | 156 ± 120 | 272 ± 110 |  |  |  |  |  |
| COc1cccc2sc(-c3ccc(C(C)(C)C)cc3)nc12 [Compound A, 4-Methoxy-2-(4-t-butylphenyl)benzothiazole] |  | enhanced the reduction |  |  |  |  | augment the anti-metastatic therapeutic effect |  |  |  |  |  |  |  |  | 38 | 64 | 24 ± 19 | 13 ± 7 | 58 ± 35 |

From patent publication US6013659A, “Methods of reducing tumor colony number using novel benzothiazole compounds” (University of Pittsburgh, priority 1998, dated 2000)
